Measured values taken from patent publication US6689767B2, “Triterpenes having antibacterial activity” (Regents of the University of Minnesota, priority 2000, dated 2004).
In brackets after ≈: the same amount, converted by molar mass.

Key:
[1] = tested on: Staphylococcus aureus; test: Kirby-Bauer disk diffusion growth inhibition, Staphylococcus aureus; type: cell-based; conditions: for zone of inhibition at 0.125 µg/mL / Zone of inhibition Staphylococcus aureus: 100 μl on 10 mm disk, 18 hours 37° C.; for zone of inhibition at 0.125 µg/mL: read-out: Zone of inhibition Staphylococcus aureus; for Active against: Table 1 summary, S. aureus
Procedure: (§1) The compounds disclosed herein were tested for growth inhibition against four strains of bacteria: Escherichia coli, Staphylococcus aureus, methicillin-resistant Staphylococcus aureus, and Bacillus subtilis. […] They represent […]. E. coli is a gram-negative, non-spore forming, rod-shaped, opportunistic pathogen that resides in the human digestive tract. S. aureus is a gram positive coccus, is usually found morphologically as a […], and is an opportunistic human pathogen, often residing on or in the skin. B. subtilis is a gram positive spore-forming rod. Its native environment is the soil. The chemicals were tested for growth-inhibition of the bacteria by the Kirby-Bauer method. See, e.g., Microbiology, third edition; Lansing M. Prescott, John P. Harley, and Donald A. Klein; Wm. C. Brown Publishers.
(§2) Mueller-Hinton agar (Difco Lab, Michigan) was prepared according to the manufacturer's directions, and 20 ml was dispensed in each sterile petri dish. Sterile nutrient broth (Difco Lab, Michigan) was also prepared according to the manufacturer's directions.
(§3) Bacteria were grown in liquid nutrient broth for 18 hours at 37° C. until they were turbid.
(§4) An aliquot of 0.5 ml of cultured bacteria was aseptically transferred to the surface of a Mueller-Hinton agar plat, and spread using a cotton-tipped swab. Plates were then allowed to dry for 5 minutes. Then a 10 mm diameter filter paper disk impregnated with the test chemical was placed with sterile forceps on the plate. The disks were impregnated with 100 μl of a solution of the test compound in DMSO or in water, at the indicated concentrations in Table 1.
(§5) The zones of inhibition were measured after 18 hours growth at 37° C. Tests were done in triplicate.
(§6) Additional compounds were tested for activity against E. coli, laboratory strain S. aureus (not methicillin resistant), and B. subtilis. The compounds were tested by the disk diffusion method, as in Example 1, with application of a 10 mg/mil solution of the test compound in DMSO.
(§7) Derivatives of lupeol were tested for inhibition of bacterial growth using the Kirby-Bauer disk diffusion method and by growth in liquid culture. For the disk diffusion method, compounds were dissolved in DMSO and 100 μl was added to the 10 mm filter paper disk. The amount of compound applied to the disk varied. The amount applied for each compound was as follows: lupeol (50 μg), lupeol-3-maleate (15 μg), lupeol-3-thiodiglycolate (15 μg), lupeol-3-dimethyl succinate (60 μg), lupeol-3-phosphate (30 μg), lupenone (50 μg), lupenon-3-oxime (50 μg), lupeol-3-amine (50 μg), lupenon-1,2-ene-2-ol (50 μg). In liquid culture, the compounds were dissolved in DMSO at 1 mg/ml and then 100 μl was added to 7 ml of sterile broth, along with a 1/200 dilution of freshly grown bacterial liquid culture.

[2] = tested on: Escherichia coli; test: Kirby-Bauer disk diffusion growth inhibition, Escherichia coli; type: cell-based; conditions: for zone of inhibition at 0.125 µg/mL: Escherichia coli, read-out: Zone of inhibition Escherichia coli; for zone of inhibition at 0.125 µg/mL / Zone of inhibition Escherichia coli: 100 μl on 10 mm disk, 18 hours 37° C.; for Active against: Table 1 summary, E. coli; for effectiveness against E. Coli: Tables 1a and 1b
Procedure: as §1, §2, §3, §4, §5, §6

[3] = tested on: Bacillus subtilis; test: Kirby-Bauer disk diffusion growth inhibition, Bacillus subtilis; type: cell-based; conditions: 100 μl on 10 mm disk, 18 hours 37° C.; for zone of inhibition at 0.125 µg/mL: Bacillus subtilis, read-out: Zone of inhibition Bacillus subtilis
Procedure: as §1, §2, §3, §4, §5, §6

[4] = tested on: bacteria; test: Summary statements over the antibacterial assays above; type: cell-based; conditions: summary list
[5] = tested on: E. Coli; test: Minimum inhibitory concentration in tryptic soy broth, E. coli; type: cell-based, Escherichia coli; conditions: 24 hours 37° C., turbidity
Procedure: Sterile tryptic soy broth was prepared according to the manufacturer's instructions (Difco Lab, Michigan). To each tube containing 7 ml of broth, test compounds dissolved in DMSO were added at different concentrations in triplicate. The tubes were incubated for 24 hours at 37° C. and then turbidity was measured using a […]. The colorimeter was calibrated with sterile broth. The MIC was the lowest concentration that could prevent an increase in turbidity.

[6] = tested on: Enterococcus faecalis; test: Kirby-Bauer disk diffusion of lupeol derivatives, Enterococcus faecalis; type: cell-based; conditions: for Active against: Table 1 summary, E. faecalis
Procedure: as §7

[7] = tested on: Staphylococcus aureus; test: Growth in liquid culture, optical density, S. aureus; type: cell-based; conditions: 600 nm, 24 hours growth, test compound at 14 μg per ml; None = 0.08
Procedure: as §7

[8] = tested on: Enterococcus faecilis; test: Growth in liquid culture, optical density, E. faecalis; type: cell-based, Enterococcus faecalis; conditions: 600 nm, 24 hours growth, test compound at 14 μg per ml; None = 0.85
Procedure: as §7

[9] = tested on: Staphylococcus epidermis; test: Growth in liquid culture, optical density, S. epidermidis; type: cell-based, Staphylococcus epidermidis; conditions: 600 nm, 24 hours growth, test compound at 14 μg per ml; None = 0.07
Procedure: as §7

[10] = tested on: Staphylococcus epidemidis; test: Kirby-Bauer disk diffusion of lupeol derivatives, Staphylococcus epidermidis; type: cell-based; conditions: for activity against S. epidermidis: Example 35, disk diffusion and liquid growth; for Active against: Table 1 summary, S. epidermidis
Procedure: as §7

[11] = Staphylococcus aureus, 125 ng/ml in water
[12] = 50 μg applied to 10 mm disk in DMSO
[13] = 15 μg applied to 10 mm disk in DMSO
[14] = Example 35, 15 μg applied to 10 mm disk in DMSO
[15] = 30 μg applied to 10 mm disk in DMSO

SMILES | zone of inhibition at 0.125 µg/mL [1, 11] [mm] | zone of inhibition at 0.125 µg/mL ([2]; 125 ng/ml in water) [mm] | zone of inhibition at 0.125 µg/mL ([3]; 125 ng/ml in water) [mm] | active against at least one strain of bacteria in the assays above [4] | Active against [6] | Active against [1] | Optical Density of S. aureus [7] | Optical Density of E. faecalis [8] | Optical Density of S. epiderm [9] | other results
CC(=O)OC1CC[C@@]2(C)C(CC[C@]3(C)C2CCC2C4C5OC(=O)C4(CCC5(C)C)CC[C@@]23C)C1(C)C (stereo partly drawn) [Allobetulin lactone-3-acetate, 3-O-acetyl allobetulin-lactone] |  |  |  |  |  |  |  |  |  | melting point: 312.5 to 315.4 °C (dec.)
CC1(C)CCC23CC[C@@]4(C)C(CCC5[C@@]6(C)C=C(O)C(=O)C(C)(C)C6CC[C@]54C)C2C1OC3=O (stereo partly drawn) [Allobetulon-lactone-1-ene-2-ol, allobetulon lactone-1-ene-2-ol] | 0 | 0 | 0 |  |  |  |  |  |  | melting point: 238.8 to 243.6 °C
C=C(C)[C@@H]1CC[C@]2(COC(=O)COCC(=O)O)CC[C@]3(C)[C@H](CC[C@@H]4[C@@]5(C)CC[C@H](OC(=O)COCC(=O)O)C(C)(C)[C@@H]5CC[C@]43C)[C@@H]12 [Betulin 3,28-didiglycolate, Betulin-3,28-didiglycolate] |  |  |  | active against at least one strain of bacteria |  |  |  |  |  | Zone of inhibition Staphylococcus aureus ([1]; 10 mg/ml in DMSO): 0 mm; Zone of inhibition Escherichia coli ([2]; 10 mg/ml in DMSO): 0 mm; Active against [2]: E. coli; effectiveness against E. Coli [2]: effective; Zone of inhibition Bacillus subtilis ([3]; 10 mg/ml in DMSO): 0 mm; MIC [5]: 0.282 µM (≈ 0.19 µg/mL)
C=C(C)[C@@H]1CC[C@]2(COC(=O)CCCC(=O)O)CC[C@]3(C)[C@H](CC[C@@H]4[C@@]5(C)CC[C@H](OC(=O)CCCC(=O)O)C(C)(C)[C@@H]5CC[C@]43C)[C@@H]12 [Betulin 3,28-diglutarate, Betulin-3,28-diglutarate] |  |  |  | active against at least one strain of bacteria |  |  |  |  |  | Zone of inhibition Staphylococcus aureus ([1]; 125 ng/ml in water): 0 mm; Zone of inhibition Staphylococcus aureus ([1]; 10 mg/ml in DMSO): 0 mm; Zone of inhibition Escherichia coli ([2]; 125 ng/ml in water): 12.0 mm; Zone of inhibition Escherichia coli ([2]; 10 mg/ml in DMSO): 0 mm; Active against [2]: E. coli; effectiveness against E. Coli [2]: effective; Zone of inhibition Bacillus subtilis ([3]; 125 ng/ml in water): 0 mm; Zone of inhibition Bacillus subtilis ([3]; 10 mg/ml in DMSO): 0 mm; MIC [5]: 0.282 µM (≈ 0.189 µg/mL)
C=C(C)C1CCC2(COP(=O)(O)O)CC[C@@]3(C)C(CCC4[C@@]5(C)CCC(OP(=O)(O)O)C(C)(C)C5CC[C@]43C)C12 (stereo partly drawn) [Betulin 3,28-diphosphate, Betulin-3,28-diphosphate] | 0 | 11 | 0 | active against at least one strain of bacteria |  |  |  |  |  | Active against [2]: E. coli; effectiveness against E. Coli [2]: effective; MIC ([5]; Escherichia coli): 0.282 µM (≈ 0.17 µg/mL)
C=C(C)[C@@H]1CCC2(CO)CC[C@@]3(C)C(CCC4[C@@]5(C)C=C(O)C(=O)C(C)(C)C5CC[C@]43C)C12 (stereo partly drawn) [Betulon-1,2-ene-ol, betulon-1-ene-2-ol] | 0 | 0 | 0 |  |  |  |  |  |  | melting point: 167 to 170 °C (dec.)
C=C(C)[C@@H]1CC[C@]2(C)CC[C@]3(C)[C@H](CC[C@@H]4[C@@]5(C)CCC(N)C(C)(C)[C@@H]5CC[C@]43C)[C@@H]12 (stereo partly drawn) [Lupeol-3-amine] |  |  |  | active against at least one strain of bacteria | E. faecalis | S. aureus, | 0.06 | 0.04 | 0.06 | Zone of inhibition (mm) against E. faecalis [6, 12]: 0.5 mm; Zone of inhibition (mm) against S. aureus ([1]; Example 35, 50 μg applied to 10 mm disk in DMSO): 0.3 mm; Zone of inhibition (mm) against S. epiderm. [10, 12]: 0 mm
C=C(C)C1CCC2(C)CCC3(C)C(CCC4C5(C)CCC(OC(=O)C=CC(=O)O)C(C)(C)C5CCC43C)C12 (stereo not drawn) [Lupeol-3-maleate] |  |  |  | active against at least one strain of bacteria | E. faecalis | S. aureus, | 0.06 | 0.03 | 0.04 | Zone of inhibition (mm) against E. faecalis [6, 13]: 1.15 mm; Zone of inhibition (mm) against S. aureus [1, 14]: 0.4 mm; Zone of inhibition (mm) against S. epiderm. [10, 13]: 0.5 mm; activity against S. epidermidis [10]: active; Active against [10]: S. epidermidis,
C=C(C)[C@@H]1CC[C@]2(C)CC[C@]3(C)[C@H](CC[C@@H]4[C@@]5(C)CC[C@H](OP(=O)(O)O)C(C)(C)[C@@H]5CC[C@]43C)[C@@H]12 [Lupeol-3-phosphate] |  |  |  | active against at least one strain of bacteria | E. faecalis | S. aureus, | 0.06 | 0.04 | 0.06 | Zone of inhibition (mm) against E. faecalis [6, 15]: 0.5 mm; Zone of inhibition (mm) against S. aureus ([1]; Example 35, 30 μg applied to 10 mm disk in DMSO): 0.5 mm; Zone of inhibition (mm) against S. epiderm. [10, 15]: 0 mm
C=C(C)[C@@H]1CC[C@]2(C)CC[C@]3(C)[C@H](CC[C@@H]4[C@@]5(C)CC[C@H](OC(=O)CSCC(=O)O)C(C)(C)[C@@H]5CC[C@]43C)[C@@H]12 [Lupeol-3-thiodiglycolate] |  |  |  | active against at least one strain of bacteria | E. faecalis | S. aureus, | 0.06 | 0.04 | 0.035 | Zone of inhibition (mm) against E. faecalis [6, 13]: 0.75 mm; Zone of inhibition (mm) against S. aureus [1, 14]: 0.3 mm; Zone of inhibition (mm) against S. epiderm. [10, 13]: 0.5 mm; activity against S. epidermidis [10]: active; Active against [10]: S. epidermidis,
C=C(C)[C@@H]1CC[C@]2(C)CC[C@@]3(C)C(CCC4[C@@]5(C)CC[C@H](O)C(C)(C)C5CC[C@]43C)C12 (stereo partly drawn) [Lupeol] | 0 | 0 | 0 | active against at least one strain of bacteria | Enterococcus faecalis | S. aureus, | 0.06 | 0.03 | 0.04 | zone of inhibition at 50 µg/disc ([6]; Enterococcus faecalis, 50 μg applied to 10 mm disk in DMSO, read-out: Zone of inhibition (mm) against E. faecalis): 1.4 mm; zone of inhibition at 50 µg/disc ([1]; Staphylococcus aureus, Example 35, 50 μg applied to 10 mm disk in DMSO, read-out: Zone of inhibition (mm) against S. aureus): 1 mm; activity against S. epidermidis [10]: active; zone of inhibition at 50 µg/disc ([10]; Staphylococcus, 50 μg applied to 10 mm disk in DMSO, read-out: Zone of inhibition (mm) against S. epiderm.): 0 mm; Active against [10]: S. epidermidis
